The source of these data is patent US11471484B2, “Fullerene and its use to maintain good health and to prolong the expected lifespan of mammals” (priority 2011, dated 2022).

Data set [1] can be described thus: Pharmacokinetics and biodistribution of an oily solution after oral and intra-peritoneal administration in rats. The class given is in vivo, male Wistar rats. As for the experimental part: Pharmacokinetic studies were carried out with male Wistar rats (weighing 200-220 g). Rats were housed in individual cages and maintained in an air-conditioned room (22-25° C.) on a 12 h light/dark cycle with water and food available. The rats were acclimated for 7 days and they were fasted overnight but with access to water, before treatment.
Under general anesthesia, a catheter was introduced into the rat right jugular vein, positioned subcutaneously with the tip in the inter-scapular region. The prepared rats were then allowed to recover for 24 h, and the blood catheters were flushed with 0.9% NaCl solution containing 20 I U/ml of heparin to avoid possible clot obstruction. Before Ceo administration, the rats were fasted overnight but with access to water. The same single dose of Ceo (4 mg/kg) was delivered orally, by a gavages needle, or intra-peritoneally to two groups of three rats. Blood (0.20 ml) was withdrawn via the canular prior to dosing (f=0) and at 15, 30, 60 min and then at 2, 4, 8, 10, 12, 24 and 48 h post-dosing. Antithrombin heparin (20 IU/ml) was added in each blood sample. After each blood collection 0.20 ml of sterile 0.9% NaCl solution were injected to the animal, to avoid hypovolemia. The rats were sacrificed 48 h after eo administration for organ collection (livers, spleens, and brains).
Consequently, the area under the curve (AUC) is about 5 times larger when Ceo is administered by i.p. route as compared to oral route.

Data set [2] has as its system acute carbon tetrachloride intoxication in rats (free-radical-mediated liver injury). Nature of the data set: C60-induced protection of the liver against acute toxicity of carbon tetrachloride in rats. The class given is in vivo. Particulars: CCl4 model. The source says:
Carbon tetrachloride is a classical hepatotoxicant that causes rapid liver damage progressing from steatosis to centrilobular necrosis. CCU intoxication in rodents is an important model far elucidation of the mechanism of action of hepatotoxic effects such as fatty degeneration, fibrosis, hepatocellular death, and carcinogenicity. These effects are consistent with the known induced metabolic activation of CCl4 to reactive intermediates, including CCl3″ and CCl02′ free radicals, and mobilization of intracellular calcium. Kupffer cells (liver resident macrophages) participate in the mechanism of toxicity of CCl4 in vivo by release of chemoattractants for neutrophils and a series of chemical mediators (cytokines). Both expression and synthesis of these cytokines are mainly modulated through redox-sensitive reactions. […] In a previous work, the effects of C60-pretreatments on acute carbon tetrachloride intoxication in rats, a classical model for studying free-radical-mediated liver injury was reported.

Data set [3] concerns rats. Nature of the data set: Longevity and chronic toxicity study in rats, oral gavage. The class given is in vivo. The protocol:
The rats were housed one per cage and acclimated for 14 days, before dosing. Three groups of 10 rats (10 months old, weighing 495±31 g) were administered daily for one week, then weekly until the end of the second month and then every two weeks until the end of the 7th month, by gavages with 1 ml of water or olive oil or Ceo dissolved in olive oil (0.8 mg/ml), respectively. The rats were weighed before each dosing. Routine observations following official recommendations (EC Commission Directive 2004/73/EC of 29 Apr. 2004 Adapting to Technical Progress for the Twenty-Ninth Time Council Directive 67/548/EEC on the Approximation of the Laws, Regulations and Administrative Provisions Relating to the Classification, Packaging and Labeling of Dangerous Substances. O.J. No. L1522004) were made on all animals inside and outside the cage once a day throughout the study for signs of departure from normal activity, morbidity and mortality.
This experiment was initiated after observing that Ceo is absorbed through oral administration. To study the chronic toxicity of Ceo we designed a protocol according to the general guidelines of US food and drug administration (Chronic Toxicity Studies with Rodents in Toxicological Principles for the Safety Assessment of Food Ingredients. Redbook 2000, revised July 2007, Chapter IV.C.5.a. IV.C.5.a.) with some modifications. […]

Data set [4] is described as follows: Dissolution of C60 in vegetable oil. The class given is physicochemical. Particulars: in less than one week. The source says:
(§1) Free radicals are constantly formed in vivo. Some of these molecules are physiologically useful, but they can also result in pathological oxidative stress to cells and tissues. Endogenous defences include both antioxidants and repairing systems. However, excess production of free radicals, their production in inappropriate relative amounts or deficiencies in endogenous defences can have deleterious effects. Free radicals can cause oxidative damage to lipids, DNA, bio molecules, rises in the concentration of intracellular calcium, as well as activation of proteases, nucleases and protein kinases. Considerable evidence supports the view that oxidative damage involving free radicals occurs in most, if not all, human diseases. Oxidative stress is now recognized as an important contributor to the development of many human diseases including liver fibrosis, ischemia-reperfusion, atherosclerosis, several neurological disorders and age-related cancer as well as to process of ageing. Thus antioxidants and systems that can protect against oxidative stress are needed to maintain health and prolong the expected lifespan in metazoans. This has led to attempts to develop additional antioxidants to supplement the antioxidant defences of cells as potential therapeutic agents. […]

A further data set concerns mice. The experiment in a line: Acute or sub-acute toxicity in mice. The class given is in vivo. Conditions: large amounts administered.
Excerpt: as §1

Data set [5] concerns rats. Nature of the data set: Acute or sub-acute toxicity in rats. Particulars: large amounts administered. The class given is in vivo.
Excerpt: as §1

Data set [6] relates to acute carbon tetrachloride intoxication in rats (free-radical-mediated liver injury). Particulars: CCl4 model, intra-peritoneal, aqueous suspension; cited from earlier work.

On to `c12c3c4c5c1c1c6c7c2c2c8c3c3c9c4c4c%10c5c5c1c1c6c6c%11c7c2c2c7c8c3c3c8c9c4c4c9c%10c5c5c1c1c6c6c%11c2c2c7c3c3c8c4c4c9c5c1c1c6c2c3c41` [[60]fullerene], for which the “area under the curve (AUC), i.p. route as compared to oral route” value in data set [1] (4 mg/kg, i.p. versus oral) is given as “about 5 times”. Further, in data set [1] (4 mg/kg, oral or i.p.), the “distribution, brain barrier” value is listed as “can cross the brain barrier”. Further, the absorption and elimination result in data set [1] (intraperitoneal or oral administration) is “absorbed and eliminated”. Further, the “activity in solution compared with suspension” value in data set [2] (compared with results of Nano Letters 2005) is “about 100 times”. The “time of effect after administration” value in data set [2] (fullerene in solution) was 24 h. Besides, the longevity result in the data set with rats [3] (oral administration) was “increases significantly the longevity”. In the data set on rats [3] (per os 1 ml of olive oil containing 0.8 mg C60 (FIG. 1)), the “behaviour or growth disorder” value is reported as “No behaviour or growth disorder could be observed”. The “amount dissolved per g of oil” value in data set [4] (olive oil) and in data set [4] (soybean oil) was “up to 1 mg of C60 per g” each time. Further, the “acute or sub-acute toxicity” value in the data set on mice and in the data set with rats [5] was “no acute or sub-acute toxicity could be observed” throughout. Besides, in data set [6], the “day of better protection after administration” value is 14 days. Besides, in data set [6], the most effective dose entry is “about 2.5 g/kg of body-weight”.
